The assay addresses T1, PPARG (peroxisome proliferator activated receptor-gamma), GST-PPARG-LBD (Homo sapiens, UniProt P37231).
T1 construct: 15 μL of 5 nM GST-PPARG-LBD and 5 nM Tb-GST-antibody were added; purchased Invitrogen PV4894
T1 sequence (P37231 238-503 limits assumed): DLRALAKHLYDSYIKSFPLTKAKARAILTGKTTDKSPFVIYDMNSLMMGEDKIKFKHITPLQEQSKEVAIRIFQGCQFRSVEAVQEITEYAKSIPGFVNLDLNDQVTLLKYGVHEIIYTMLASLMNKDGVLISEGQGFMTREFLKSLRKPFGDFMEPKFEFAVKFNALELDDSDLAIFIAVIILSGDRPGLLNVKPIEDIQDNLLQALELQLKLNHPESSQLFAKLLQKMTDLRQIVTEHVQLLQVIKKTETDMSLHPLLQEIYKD
The experiment in a line: LanthaScreen TR-FRET PPARG Competitive Binding Assay. The following applies: degree of binding activity. Also noted: key: “+” indicates the degree of the binding activity, and as the number of “+” increases, the binding activity is stronger; ++: “+” indicates the degree of the binding activity, and as the number of “+” increases, the binding activity is stronger; +++: “+” indicates the degree of the binding activity, and as the number of “+” increases, the binding activity is stronger; ++++: “+” indicates the degree of the binding activity, and as the number of “+” increases, the binding activity is stronger. The method, then:
The following experiment was performed to evaluate the PPARG (peroxisome proliferator activated receptor-gamma) binding capacity and transcriptional activity of the compounds prepared in the examples of the invention. For the experiment, LanthaScreen™ TR-FRET PPARG Competitive Binding Assay Kit (PV4894, Invitrogen) was used according to the manufacturer's instruction. […] The mixture was loaded in a 384-well plate (Greiner, 784075) by 20 μL per well, followed by reaction at room temperature for 1 hour. Upon completion of the reaction, fluorescence value was measured by using Flexstation 3 (Molecular Devices) with time-resolved fluorescence (RFU) mode (excitation 1: 340 nm, emission 1: 518 nm, excitation 2: 340 nm, emission 2: 488 nm, integration delay 50 μs, integration 400 μs). The results were calculated by using 518 nm RFUs/488 nm RFUs ratio. The activity of the compounds of the invention was compared with that of the vehicle, which was calculated by ratio according to the formula [100%−compound of the example ratio/vehicle ratio]. At this time, the binding activity ratio to rosiglitazone was compared.
On the technique in general: In TR-FRET formats the signal depends on donor and acceptor labels being close together.

Data on 21 molecules can be found in patent US20160355483A1, “COMPOUND BINDING TO PPARG BUT NOT ACTING AS PROMOTER AND PHARMACEUTICAL COMPOSITION FOR TREATING PPARG-RELATED DISEASES CONTAINING SAME AS ACTIVE INGREDIENT” (Hyundai Pharm Co., Ltd., priority 2014, published 2016).

With `C[C@H](NC(=O)c1ccc2c(c1)OCCN2Cc1ccccc1-c1ccc(C(=O)O)cc1)c1ccc2ccccc2c1` [Example 147, (S)-2′-((7-((1-(naphthalene-2-yl)ethyl)carbamoyl)-2H-benzo[b][1,4]oxazine-4(3H)-yl)methyl)-[1,1′-biphenyl]-4-carboxylic acid], the “Binding assay (1 μLM)” value is on record as “+++”.

With `C[C@H](NC(=O)c1ccc2c(c1)OCCN2Cc1ccc(-c2ccccc2C(=O)O)cc1)c1cccc(Cl)c1` [Example 65, (S)-4′-((7-((1-(3-chlorophenyl)ethyl)carbamoyl)-2H-benzo[b][1,4]oxazine-4(3H)-yl)methyl)-[1,1′-biphenyl]-2-carboxylic acid], the “Binding assay (1 μLM)” value is on record as “++”. Under `C[C@H](NC(=O)c1ccc2c(c1)OCCN2Cc1ccc(-c2ccccc2C(=O)O)cc1)c1cccc2ccccc12` [Example 70, (S)-4′-((7-((1-(naphthalene-1-yl)ethyl)carbamoyl)-2H-benzo[b][1,4]oxazine-4(3H)-yl)methyl)-[1,1′-biphenyl]-2-carboxylic acid] stands “++”. In the case of `Cc1ccc([C@H](C)NC(=O)c2ccc3c(c2)OCCN3Cc2ccc(-c3ccccc3C(=O)O)c(F)c2)cc1F` [Example 164, (S)-2′-fluoro-4′-((7-(((3-fluoro-4-methylphenyl)ethyl)carbamoyl)-2H-benzo[b][1,4]oxazine-4(3)-yl)methyl)-[1,1′-biphenyl]-2-carboxylic acid] it was “+++”; in that of `C[C@H](NC(=O)c1ccc2c(c1)CCCN2Cc1ccc(-c2ccccc2C(N)=O)cc1)c1cccc(C(F)(F)F)c1` [Example 47, (S)-1-((2′-carbamoyl-[1,1′-biphenyl]-4-yl)methyl)-N-(1-(3-(trifluoromethyl)phenyl)ethyl)-1,2,3,4-tetrahydroquinoline-6-carboxamide], “+++”. Under `C[C@H](NC(=O)c1ccc2c(c1)CCCN2Cc1ccccc1-c1ccc(C(N)=O)cc1)c1ccc(C#N)cc1` [Example 161, (S)-1-((4′-carbamoyl-[1,1′-biphenyl]-2-yl)methyl)-N-(1-(4-cyanophenyl)ethyl)-1,2,3,4-tetrahydroquinoline-6-carboxamide] stands “++”. As for `C[C@H](NC(=O)c1ccc2c(c1)CCCN2Cc1ccc(-c2ccccc2C(=O)O)cc1)c1ccccc1F` [Example 24, (S)-4′-((6-((1-(2-fluorophenyl)ethyl)carbamoyl)-3,4-dihydroquinoline-1(2H)-yl)methyl)-[1,1′-biphenyl]-2-caboxylic acid], the “Binding assay (1 μLM)” value is listed as “+++”. In the case of `NC(=O)c1ccccc1-c1ccc(CN2CCCc3cc(C(=O)NCc4ccncc4)ccc32)cc1` [Example 48, 1-((2′-carbamoyl-[1,1′-biphenyl]-4-yl)methyl)-N-(pyridine-4-ylmethyl)-1,2,3,4-tetrahydroquinoline-6-carboxamide] it was “+”.

Consider `O=C(NCc1cccc(OC(F)(F)F)c1)c1ccc2c(c1)CCCN2Cc1ccc(-c2ccccc2C(=O)O)cc1` [Example 32, 4′-((6-((3-(trifluoromethoxy)benzyl)carbamoyl)-3,4-dihydroquinoline-1(2H)-yl)methyl)-[1,1′-biphenyl]-2-carboxylic acid], for which the “Binding assay (1 μLM)” value is listed as “+++”. In the case of `C[C@H](NC(=O)c1ccc2c(c1)OCCN2Cc1ccc(-c2ccccc2C(=O)O)cc1)c1ccc(F)cc1` [Example 63, (S)-4′-((7-((1-(4-fluorophenyl)ethyl)carbamoyl)-2H-benzo[b][1,4]oxazine-4(3H)-yl)methyl)-[1,1′-biphenyl]-2-carboxylic acid] it was “+”. In the case of `NC(=O)c1ccccc1-c1ccc(CN2CCOc3cc(C(=O)NCc4ccc5c(c4)OCCO5)ccc32)cc1` [Example 102, 4-((2′-carbamoyl-[1,1′-biphenyl]-4-yl)methyl)-N-((2,3-dihydrobenzo[b][1,4]dioxin-6-yl)methyl)-3,4-dihydro-2H-benzo[b][1,4]oxazine-7-carboxamide] it was “+”; in that of `Cc1ccc([C@H](C)NC(=O)c2ccc3c(c2)CCCN3Cc2cc(-c3ccccc3C(=O)O)ccc2F)cc1F` [Example 138, (S)-4′-fluoro-3′-((6-((1-(3-fluoro-4-methylphenyl)ethyl)carbamoyl)-3,4-dihydroquinoline-1(2H)-yl)methyl)-[1,1′-biphenyl]-2-caboxylic acid], “++++”.

For `C[C@H](NC(=O)c1ccc2c(c1)CCCN2Cc1ccc(-c2ccccc2C(=O)O)cc1)c1ccc(C(F)(F)F)cc1` [Example 12, (S)-4′-((6-((1-(4-(trifluoromethyl)phenyl)ethyl)carbamoyl)-3,4-dihydroquinoline-1(2H)-yl)methyl)-[1,1′-biphenyl]-2-carboxylic acid], the “Binding assay (1 μLM)” value is “++++”. In the case of `C[C@H](NC(=O)c1ccc2c(c1)CCCN2Cc1cc(-c2ccccc2C(=O)O)ccc1F)c1ccccc1` [Example 134, (S)-4′-fluoro-3′-((6-((1-phenylethyl)carbamoyl)-3,4-dihydroquinoline-1(2H)-yl)methyl)-[1,1′-biphenyl]-2-carboxylic acid] it was “++++”. Under `C[C@H](NC(=O)c1ccc2c(c1)CCCN2Cc1cccc(-c2ccccc2C(=O)O)c1F)c1ccccc1` [Example 126, (S)-2′-fluoro-3′-((6-((1-phenylethyl)carbamoyl)-3,4-dihydroquinoline-1(2H)-yl)methyl)-[1,1′-biphenyl]-2-carboxylic acid] stands “+++”. With `O=C(NCCc1ccccc1)c1ccc2c(c1)OCCN2Cc1ccc(-c2ccccc2C(=O)O)cc1` [Example 68, 4′-((7-(phenethylcarbamoyl)-2H-benzo[b][1,4]oxazine-4(3H)-yl)methyl)-[1,1′-biphenyl]-2-carboxylic acid], the “Binding assay (1 μLM)” value is “++”.

As for `C[C@H](NC(=O)c1ccc2c(c1)CCCN2Cc1cccc(-c2ccccc2C(N)=O)c1)c1ccc2ccccc2c1` [Example 124, (S)-1-((2′-carbamoyl-[1,1′-biphenyl]-3-yl)methyl)-N-(1-(naphthalene-2-yl)ethyl)-1,2,3,4-tetrahydroquinoline-6-carboxamide], the “Binding assay (1 μLM)” value was “++++”. Under `C[C@H](NC(=O)c1ccc2c(c1)CCCN2Cc1ccc(-c2ccccc2C(=O)O)cc1)c1ccc2ccccc2c1` [Example 20, (S)-4′-((6-((1-(naphthalene-2-yl)ethyl)carbamoyl)-3,4-dihydroquinoline-1(2H)-yl)methyl)-[1,1′-biphenyl]-2-carboxylic acid] stands “++++”; under `O=C(NCc1ccccc1Br)c1ccc2c(c1)OCCN2Cc1ccc(-c2ccccc2C(=O)O)cc1` [Example 92, 4′-((7-((2-bromobenzyl)carbamoyl)-2H-benzo[b][1,4]oxazine-4(3H)-yl)methyl)-[1,1′-biphenyl]-2-carboxylic acid], “+++”. In the case of `O=C(NCc1cccnc1)c1ccc2c(c1)OCCN2Cc1ccc(-c2ccccc2C(=O)O)cc1` [Example 89, 4′-((7-((pyridine-3-ylmethyl)carbamoyl)-2H-benzo[b][1,4]oxazine-4(3H)-yl)methyl)-[1,1′-biphenyl]-2-carboxylic acid], the “Binding assay (1 μLM)” value was “+”. Regarding `O=C(NCc1ccccn1)c1ccc2c(c1)OCCN2Cc1ccc(-c2ccccc2C(=O)O)cc1` [Example 88, 4′-((7-((pyridine-2-ylmethyl)carbamoyl)-2H-benzo[b][1,4]oxazine-4(3H)-yl)methyl)-[1,1′-biphenyl]-2-carboxylic acid], the “Binding assay (1 μLM)” value is “+”.
